The values below come from PubChem BioAssay (NCI).

Molecules are shown by their SMILES.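 Five compound concentrations were applied to cells in 96-well plates for 48 hours; endpoints were derived by simple linear interpolation of the resulting dose-response curve. The concentration for 50% growth inhibition is given as GI50. TGI marks complete inhibition of growth.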 Where only a bound is given, the exact number is not on record here.

Some test systems named below: MCF7 breast; HOP-92 NSCLC; RXF 393 renal; BT-549 breast; DU-145 prostate; HS 578T breast; UACC-257 melanoma; OVCAR-4 ovarian; TK-10 renal; SNB-19 CNS.
Holding throughout (assay): NCI anticancer screen, dose series, 48 h

As to `C[C@@H]1CCC([C@@H](C)[C@H]2CC[C@H]3[C@@H]4CC[C@H]5C[C@@H](O)CC[C@]5(C)[C@H]4CC[C@]23C)=NC1`, the TGI in the experiment with MCF7 breast was above 54.8 µM; with HOP-92 NSCLC, above 100 µM; in the experiment on RXF 393 renal, above 100 µM; in the experiment on BT-549 breast it was above 85 µM; in the experiment on DU-145 prostate it was above 100 µM; with HS 578T breast, above 100 µM. Besides, the TGI in the experiment with UACC-257 melanoma, in the experiment on OVCAR-4 ovarian, in the experiment with TK-10 renal and with SNB-19 CNS was above 100 µM in each case.
As to `N=C(N)SCc1c2ccccc2c(CSC(=N)N)c2ccccc12`, the GI50 was 1.54 µM in the experiment on MCF7 breast; 2.8 µM with HOP-92 NSCLC; 8.22 µM in the experiment with RXF 393 renal; 16.9 µM in the experiment on BT-549 breast; 5.63 µM in the experiment on DU-145 prostate; 5.75 µM with HS 578T breast. Further, the GI50 in the experiment with UACC-257 melanoma is 23.2 µM; with OVCAR-4 ovarian it was 11.7 µM; in the experiment on TK-10 renal, 22.3 µM; in the experiment on SNB-19 CNS, 11.5 µM. Besides, the TGI was 15.5 µM in the experiment with MCF7 breast; 19.9 µM in the experiment with HOP-92 NSCLC; 23.7 µM with RXF 393 renal; 58.3 µM in the experiment on BT-549 breast; 20 µM in the experiment with DU-145 prostate; 34.3 µM with HS 578T breast. The TGI in the experiment on UACC-257 melanoma was 45 µM; in the experiment with OVCAR-4 ovarian, 35.5 µM; in the experiment with TK-10 renal it was 45.3 µM; with SNB-19 CNS, 25 µM.
As for `CN1CCC2(CC1)NC(=O)c1c(c3ccc(Cl)c(Cl)c3n1C)C2C#N` (stereo not given), the GI50 was 2.53 µM with MCF7 breast; 2.52 µM with HOP-92 NSCLC; 2.27 µM in the experiment with RXF 393 renal; 2.62 µM in the experiment with BT-549 breast; 6.01 µM in the experiment with DU-145 prostate; 7.63 µM in the experiment on HS 578T breast. For the same compound, the GI50 in the experiment on UACC-257 melanoma is 2.12 µM; in the experiment on OVCAR-4 ovarian, 11.7 µM; with TK-10 renal it was 10.5 µM; in the experiment on SNB-19 CNS, 12.8 µM. Moreover, the TGI in the experiment with MCF7 breast was 8.83 µM; in the experiment on HOP-92 NSCLC it was 19.6 µM; with RXF 393 renal, 7.3 µM; in the experiment on BT-549 breast it was 12.5 µM; with DU-145 prostate, 15.2 µM; with HS 578T breast, 45.6 µM. The TGI was 4.71 µM in the experiment on UACC-257 melanoma, above 56 µM in the experiment on OVCAR-4 ovarian, 23.4 µM in the experiment on TK-10 renal and 27.4 µM in the experiment with SNB-19 CNS.
On to `Cc1ccc2c(c1)c(Sc1ccc(C(=O)NO)cc1)c1n2CN(C)CC1`, for which the GI50 in the experiment with MCF7 breast was 2.44 µM; in the experiment on HOP-92 NSCLC it was 2.1 µM; in the experiment on RXF 393 renal, 1.74 µM; with BT-549 breast it was 1.8 µM; in the experiment on DU-145 prostate, 1.83 µM; in the experiment on HS 578T breast, 2.25 µM. For the same compound, the GI50 in the experiment with UACC-257 melanoma was 1.48 µM; in the experiment with OVCAR-4 ovarian, 1.51 µM; with TK-10 renal, 2.19 µM; in the experiment on SNB-19 CNS it was 2.13 µM. Also, the TGI with MCF7 breast came out at 11.5 µM; in the experiment with HOP-92 NSCLC it was 6.37 µM; in the experiment with RXF 393 renal, 5.86 µM; with BT-549 breast, 4.57 µM; in the experiment on DU-145 prostate it was 5.28 µM; in the experiment with HS 578T breast, 13 µM. Besides, the TGI in the experiment with UACC-257 melanoma was found to be 5.37 µM; with OVCAR-4 ovarian, 9.04 µM; in the experiment with TK-10 renal, 6.73 µM; in the experiment on SNB-19 CNS, 7.27 µM.
For the compound `CC/C(=C(/c1ccc(O)cc1)c1ccc(OCCN)cc1)c1ccccc1`, the GI50 with MCF7 breast was below 0.0233 µM; in the experiment with HOP-92 NSCLC it was 1.46 µM; in the experiment on RXF 393 renal, 2.17 µM; in the experiment on BT-549 breast, 6.31 µM; in the experiment on DU-145 prostate, 3.5 µM; in the experiment on HS 578T breast it was 2.82 µM. Also, the GI50 in the experiment on UACC-257 melanoma was 10.5 µM; with OVCAR-4 ovarian, 2.88 µM; in the experiment on TK-10 renal it was 4.91 µM; in the experiment with SNB-19 CNS, 4.95 µM. The TGI was 3.99 µM in the experiment on MCF7 breast; 5.84 µM in the experiment on HOP-92 NSCLC; 7.07 µM in the experiment with RXF 393 renal; 19.6 µM in the experiment with BT-549 breast; 10.8 µM in the experiment with DU-145 prostate; 12.8 µM in the experiment on HS 578T breast. The TGI in the experiment on UACC-257 melanoma turned out to be 22.7 µM; with OVCAR-4 ovarian, 16 µM; with TK-10 renal, 10.2 µM; in the experiment with SNB-19 CNS, 19 µM.
On to `CCCCCCCCCCCC(=O)N1CCN(C(C)=O)CC1`, for which the GI50 with MCF7 breast was 17.6 µM; with HOP-92 NSCLC, 11.5 µM; with RXF 393 renal, 15.4 µM; in the experiment on BT-549 breast it was 24.6 µM; with DU-145 prostate, 35 µM; in the experiment on HS 578T breast, 21.5 µM. In addition, the GI50 in the experiment on UACC-257 melanoma is 19.4 µM; in the experiment on OVCAR-4 ovarian it was 32.8 µM; in the experiment with TK-10 renal it was 31 µM; in the experiment with SNB-19 CNS, 19.3 µM. The TGI in the experiment with MCF7 breast is 32.8 µM; in the experiment on HOP-92 NSCLC, 27.4 µM; in the experiment with RXF 393 renal, 33.4 µM; in the experiment with BT-549 breast, 58.1 µM; in the experiment on DU-145 prostate, above 100 µM; in the experiment with HS 578T breast it was 48.4 µM. In addition, the TGI in the experiment on UACC-257 melanoma is 36.9 µM; with OVCAR-4 ovarian it was above 100 µM; in the experiment with TK-10 renal it was 72.1 µM; in the experiment with SNB-19 CNS, 40 µM.
